Reference: ChEMBL document CHEMBL4483862, “Open-source discovery of chemical leads for next-generation chemoprotective antimalarials” (2018)
pIC50: −log10 of the molar value.

Tested on: Plasmodium berghei
Experiment: Luciferase/luciferin-expressing antifolate-resistant parasites were used to infect a culture of HepG2 cells that were pre-incubated with compounds. Infected hepatocytes emit light due to the luciferase reaction. Assay results are presented as the percent inhibition of light emission compared to control. […]
Type: functional
Conditions: sporozoite; for IC90: read-out: LUCIFERASE INFECTION ASSAY - IC90

CCc1ccc(C2=NN=C(Nc3cccc(S(=O)(=O)N(C)C)c3)SC2)cc1 gave a pIC50 (FFLUC_HILL_SLOPE 1.2, FFLUC_R_SQUARED 0.399, HEPG2TOX_HILL_SLOPE 10.6, HEPG2TOX_R_SQUARED 0.97, PBLUC_HILL_SLOPE 5.57, PBLUC_R_SQUARED 0.702, read-out: LUCIFERASE INFECTION ASSAY - IC50) of 5.17 and an IC90 of 9.95 µM.
With CC(C)(C)c1ccc(C(=O)NCCOc2ccccc2F)cc1 the pIC50 (FFLUC_HILL_SLOPE 1.22, FFLUC_R_SQUARED 0.498, PBLUC_HILL_SLOPE 0.635, PBLUC_R_SQUARED 0.572, read-out: LUCIFERASE INFECTION ASSAY - IC50) was 7.70 and the IC90 was 0.642 µM.
In the case of O=C1C=CC(=O)N1c1ccc(Oc2ccccc2)cc1, the pIC50 (FFLUC_HILL_SLOPE 1.06, FFLUC_R_SQUARED 0.54, read-out: LUCIFERASE INFECTION ASSAY - IC50) was less than 4.91 and the IC90 was greater than 12.4 µM.
O=[N+]([O-])c1ccccc1NC(=S)N/N=C/c1ccc(O)c(O)c1 was tested, and the pIC50 (FFLUC_HILL_SLOPE 1.09, FFLUC_R_SQUARED 0.362, HEPG2TOX_HILL_SLOPE 7.32, HEPG2TOX_R_SQUARED 0.0511, PBLUC_HILL_SLOPE 3.36, PBLUC_R_SQUARED 0.569, read-out: LUCIFERASE INFECTION ASSAY - IC50) was 5.36 and the IC90 was 8.44 µM.
Cc1ccc(OC(=O)c2ccc(C(C)(C)C)cc2)c(NC(=O)c2ccc(C(C)(C)C)cc2)c1 was tested, and the pIC50 (FFLUC_HILL_SLOPE 1.14, FFLUC_R_SQUARED 0.535, PBLUC_HILL_SLOPE 1.18, PBLUC_R_SQUARED 0.716, read-out: LUCIFERASE INFECTION ASSAY - IC50) was 5.84 and the IC90 was greater than 7.44 µM.
In the case of C/N=c1\scc(-c2ccc(C)c(C)c2)n1/N=C/c1ccc[nH]1, the pIC50 (FFLUC_HILL_SLOPE 1.19, FFLUC_R_SQUARED 0.95, read-out: LUCIFERASE INFECTION ASSAY - IC50) was less than 5.00 and the IC90 was greater than 10 µM.
O=C1C(=C2SCCCS2)CC/C1=C\c1ccccc1 showed a pIC50 (FFLUC_HILL_SLOPE 1.05, FFLUC_R_SQUARED 0.81, PBLUC_HILL_SLOPE 0.851, PBLUC_R_SQUARED 0.668, read-out: LUCIFERASE INFECTION ASSAY - IC50) of 6.36 and an IC90 of 5.73 µM.
With Nc1nn(C(=O)c2csc3ccccc23)c2ccccc12 the pIC50 (FFLUC_HILL_SLOPE 1.19, FFLUC_R_SQUARED 0.595, HEPG2TOX_HILL_SLOPE 0.0302, HEPG2TOX_R_SQUARED 0.0617, PBLUC_HILL_SLOPE 0.566, PBLUC_R_SQUARED 0.73, read-out: LUCIFERASE INFECTION ASSAY - IC50) was 6.44 and the IC90 was greater than 10 µM.
N#Cc1c(N)nc2c(c1N)C(C(C#N)C#N)c1cc(Br)ccc1O2 (stereo unspecified) showed a pIC50 (FFLUC_HILL_SLOPE 1.21, FFLUC_R_SQUARED 0.243, read-out: LUCIFERASE INFECTION ASSAY - IC50) of less than 5.06 and an IC90 greater than 8.66 µM.
CCC(C)NC(=O)c1c(NC(=O)C2CCCC2)nc2ccc(C)cn12 (stereo unspecified) gave a pIC50 (FFLUC_HILL_SLOPE 1.17, FFLUC_R_SQUARED 0.173, read-out: LUCIFERASE INFECTION ASSAY - IC50) of less than 5.02 and an IC90 greater than 9.64 µM.
CCOC(=O)c1c(C)[nH]c(-c2csc(/C(C#N)=C/c3ccc[nH]3)n2)c1C showed a pIC50 (FFLUC_HILL_SLOPE 1.13, FFLUC_R_SQUARED 0.248, HEPG2TOX_HILL_SLOPE 11.9, HEPG2TOX_R_SQUARED 0.816, PBLUC_HILL_SLOPE 50.7, PBLUC_R_SQUARED 0.357, read-out: LUCIFERASE INFECTION ASSAY - IC50) of 5.02 and an IC90 greater than 10 µM.
Work on Cc1c(-c2nc3ncc(Br)cc3[nH]2)cc(C#N)n1C yielded a pIC50 (FFLUC_HILL_SLOPE 1.06, FFLUC_R_SQUARED 0.775, HEPG2TOX_HILL_SLOPE 12.7, HEPG2TOX_R_SQUARED 0.745, PBLUC_HILL_SLOPE 2.08, PBLUC_R_SQUARED 0.626, read-out: LUCIFERASE INFECTION ASSAY - IC50) of 5.46 and an IC90 of 9.96 µM.
N#Cc1c(/N=C/c2ccccc2C(F)(F)F)sc2c1CCCCC2 showed a pIC50 (FFLUC_HILL_SLOPE 1.19, FFLUC_R_SQUARED 0.84, PBLUC_HILL_SLOPE 1.29, PBLUC_R_SQUARED 0.776, read-out: LUCIFERASE INFECTION ASSAY - IC50) of 5.87 and an IC90 of 7.41 µM.
For CC(C)(C)C1=CSC(=C2Sc3ccccc3C2=O)N1, the pIC50 (FFLUC_HILL_SLOPE 1.22, FFLUC_R_SQUARED 0.112, read-out: LUCIFERASE INFECTION ASSAY - IC50) was less than 4.94 and the IC90 was greater than 11.4 µM.
CCCn1c(SCC(=O)NCC23CC4CC(CC(C4)C2)C3)nc2cc(Cl)ccc2c1=O gave a pIC50 (FFLUC_HILL_SLOPE 1.09, FFLUC_R_SQUARED 0.071, read-out: LUCIFERASE INFECTION ASSAY - IC50) of less than 5.00 and an IC90 greater than 10 µM.
COc1ccc(NS(=O)(=O)c2c(C)c(C)c(C)c(C)c2C)cc1O was tested, and the pIC50 (FFLUC_HILL_SLOPE 1.05, FFLUC_R_SQUARED 0.782, HEPG2TOX_HILL_SLOPE 1.26, HEPG2TOX_R_SQUARED 0.985, PBLUC_HILL_SLOPE 23, PBLUC_R_SQUARED 0.188, read-out: LUCIFERASE INFECTION ASSAY - IC50) was 5.46 and the IC90 was 3.8 µM.
In the case of CCN(CC)c1ccc(S(=O)(=O)N2CCCCC2)cc1NC(=O)c1ccc2c(c1)nnn2CC, the pIC50 (FFLUC_HILL_SLOPE 1.06, FFLUC_R_SQUARED 0.385, read-out: LUCIFERASE INFECTION ASSAY - IC50) was less than 5.00 and the IC90 was greater than 10 µM.
In the case of NS(=O)(=O)c1ccc(CCNc2nn3c(-c4cccc(Cl)c4)cnc3s2)cc1, the pIC50 (FFLUC_HILL_SLOPE 1.14, FFLUC_R_SQUARED 0.295, read-out: LUCIFERASE INFECTION ASSAY - IC50) was less than 5.12 and the IC90 was greater than 7.6 µM.
CC(C)(C)c1ccc(NC(=O)c2cnccn2)cc1 gave a pIC50 (FFLUC_HILL_SLOPE 1.15, FFLUC_R_SQUARED 0.77, PBLUC_HILL_SLOPE 0.39, PBLUC_R_SQUARED 0.583, read-out: LUCIFERASE INFECTION ASSAY - IC50) of 7.53 and an IC90 of 8.29 µM.
For CCOC(=O)Cn1c(=O)c2c3c(sc2n(Cc2ccccc2)c1=O)CCCC3, the pIC50 (FFLUC_HILL_SLOPE 1.15, FFLUC_R_SQUARED 0.544, PBLUC_HILL_SLOPE 1.19, PBLUC_R_SQUARED 0.498, read-out: LUCIFERASE INFECTION ASSAY - IC50) was 5.41 and the IC90 was greater than 8.28 µM.
In the case of CCCCCCCCCCCc1nnc(SCc2ccccc2)n1-c1ccccc1C(F)(F)F, the pIC50 (FFLUC_HILL_SLOPE 1.21, FFLUC_R_SQUARED 0.637, read-out: LUCIFERASE INFECTION ASSAY - IC50) was less than 5.17 and the IC90 was greater than 6.74 µM.
In the case of O=C1C=CC(=O)N1c1cc(F)ccc1F, the pIC50 (FFLUC_HILL_SLOPE 1.16, FFLUC_R_SQUARED 0.312, PBLUC_HILL_SLOPE 23.3, PBLUC_R_SQUARED 0.503, read-out: LUCIFERASE INFECTION ASSAY - IC50) was 4.82 and the IC90 was greater than 15.8 µM.
Cc1cc(/C=C/C(=O)Nc2ccc(S(=O)(=O)NC3=NCCCCC3)cc2)c(C)n1-c1ccccc1 was tested, and the pIC50 (FFLUC_HILL_SLOPE 1.16, FFLUC_R_SQUARED 0.166, PBLUC_HILL_SLOPE 1.89, PBLUC_R_SQUARED 0.7, read-out: LUCIFERASE INFECTION ASSAY - IC50) was 5.70 and the IC90 was 6.38 µM.
Cc1csc(C(C#N)C(=O)CSc2nc(-c3ccc(Br)cc3)nc3ccccc23)n1 (stereo unspecified) was tested, and the pIC50 (FFLUC_HILL_SLOPE 1.1, FFLUC_R_SQUARED 0.67, read-out: LUCIFERASE INFECTION ASSAY - IC50) was less than 5.00 and the IC90 was greater than 10 µM.
Cc1cc(C(=O)COC(=O)c2ccccc2N/C=C/C(=O)C(F)(F)F)c(C)n1CC1CCCO1 (stereo unspecified) was tested, and the pIC50 (FFLUC_HILL_SLOPE 1.17, FFLUC_R_SQUARED 0.844, PBLUC_HILL_SLOPE 1.67, PBLUC_R_SQUARED 0.404, read-out: LUCIFERASE INFECTION ASSAY - IC50) was 5.47 and the IC90 was greater than 10 µM.
CCOc1cc(C(=O)Oc2cccc(Cl)c2Cl)cc(OCC)c1OCC gave a pIC50 (FFLUC_HILL_SLOPE 1.16, FFLUC_R_SQUARED 0.617, read-out: LUCIFERASE INFECTION ASSAY - IC50) of less than 5.00 and an IC90 greater than 10 µM.
With CC(C)Nc1cc(C(=O)Nc2ccccc2)ncn1 the pIC50 (FFLUC_HILL_SLOPE 1.2, FFLUC_R_SQUARED 0.891, PBLUC_HILL_SLOPE 0.483, PBLUC_R_SQUARED 0.815, read-out: LUCIFERASE INFECTION ASSAY - IC50) was 6.71 and the IC90 was greater than 12.9 µM.
c1ccc(Nc2nc(-c3ccc4c(c3)OCCO4)cs2)nc1 gave a pIC50 (FFLUC_HILL_SLOPE 1.22, FFLUC_R_SQUARED 0.822, PBLUC_HILL_SLOPE 0.789, PBLUC_R_SQUARED 0.792, read-out: LUCIFERASE INFECTION ASSAY - IC50) of 6.80 and an IC90 of 2.55 µM.
With CC(C)n1ncc2cc(C(=O)Nc3nc4c(s3)CCCC4)cnc21 the pIC50 (FFLUC_HILL_SLOPE 1.2, FFLUC_R_SQUARED 0.643, HEPG2TOX_HILL_SLOPE 0.617, HEPG2TOX_R_SQUARED 0.917, PBLUC_HILL_SLOPE 0.702, PBLUC_R_SQUARED 0.926, read-out: LUCIFERASE INFECTION ASSAY - IC50) was 7.53 and the IC90 was 0.68 µM.
For CN(Cc1ccc(C(F)(F)F)cc1)C(=O)c1cc(Br)ccc1O, the pIC50 (FFLUC_HILL_SLOPE 1.16, FFLUC_R_SQUARED 0.0567, read-out: LUCIFERASE INFECTION ASSAY - IC50) was less than 5.00 and the IC90 was greater than 10 µM.
O=S(=O)(Nc1csc(C(F)(F)F)c1-c1ccccc1)c1cc(Cl)c(Cl)s1 was tested, and the pIC50 (FFLUC_HILL_SLOPE 1.1, FFLUC_R_SQUARED 0.492, HEPG2TOX_HILL_SLOPE 2.51, HEPG2TOX_R_SQUARED 0.937, PBLUC_HILL_SLOPE 4.37, PBLUC_R_SQUARED 0.518, read-out: LUCIFERASE INFECTION ASSAY - IC50) was 5.38 and the IC90 was 6.91 µM.
With Fc1ccccc1-c1cnn2c(NCc3cccs3)ccnc12 the pIC50 (FFLUC_HILL_SLOPE 1.17, FFLUC_R_SQUARED 0.682, PBLUC_HILL_SLOPE 0.51, PBLUC_R_SQUARED 0.639, read-out: LUCIFERASE INFECTION ASSAY - IC50) was 6.62 and the IC90 was greater than 10.2 µM.
Work on O=C(Nc1cc(Cl)cc(Cl)c1)Nc1cc(-c2cccs2)n[nH]1 yielded a pIC50 (FFLUC_HILL_SLOPE 1.15, FFLUC_R_SQUARED 0.0672, PBLUC_HILL_SLOPE 14.1, PBLUC_R_SQUARED 0.219, read-out: LUCIFERASE INFECTION ASSAY - IC50) of 5.10 and an IC90 of 9.3 µM.
